Patent publication US9340549B2, “Oxazolidinone compounds and derivatives thereof” (priority 2012, dated 2016)
Like-named read-outs stand apart in the source and are kept apart here.

Columns and labels:
[1] = test system: total β-catenin in SW480 colorectal cells; assay: cells; assay type: cell-based; settings: Homo sapiens; SW480 cells, 40 to 48 hours, top concentration 10 μM; read-out: SW480-Total β-Catenin IC50 IP
Description: Total β-Catenin MSD 96-Well Plate Assay for SW480 Cells
SW480 colorectal cells were seeded at a density of 10,000/well in CellBIND 96-well plates (Corning catalog no. 3300) in 60 μL of normal growth medium (MEM alpha supplemented with 10% heat inactivated FBS, GlutaMAX, pyruvate, and 10 mM HEPES).
A 10-point, 3-fold dilution series for each TNKS inhibitor was constructed in a 96-well “stock” plate. […] The plates were incubated at 37° C. for 40 to 48 hours. The media was removed from the CellBIND plate via plate inversion and gentle shaking and the inverted plate was touched to a paper towel and immediately placed on ice. […] Plates containing cell lysates were sealed and shaken for one hour at 4° C. and then quickly frozen in a −80° C. for approximately 15 to 30 minutes followed by gradually thawing at 4° C. Finally, lysate containing plates were centrifuged @1000×g (2073 rpm) for 10 minutes at 4° C.
The sealed MSD plate was incubated overnight in a cold room with gentle shaking. The MSD plate was then blocked with 150 μL of Blocker “A” per well and incubated overnight at 4° C. with vigorous shaking. The blocked MSD plate was washed 4 times with 150 μL/well TBS-T wash buffer (150 mM NaCl, 50 mM Tris, pH 7.5, 0.02% Tween-20). Cell lysates (75 μL) were transferred to prepared MSD plates and incubated at 4° C. ON with gentle shaking. […] The detection antibody was incubated for 1 hour at room temperature with vigorous shaking after which plates were washed 3 times with 150 μL/well TBS-T wash buffer. Plates were processed for analysis by the addition of 150 μL/well MSD Read 4× Buffer T with surfactant (catalog no. R92TC-2; diluted 1:3 in deionized water) and were read on the SECTOR Imager 6000.

[2] = molecular target: 6×HIS-tankyrase 1 (1091-1325) (Homo sapiens (Human), UniProt O95271); assay: biochemical; assay type: biochemical; settings: 400 nM NAD, 60 minutes at room temperature, read-out: TNKS1 IP IC50
6×HIS-tankyrase 1 (1091-1325), sequence (O95271 1091-1325): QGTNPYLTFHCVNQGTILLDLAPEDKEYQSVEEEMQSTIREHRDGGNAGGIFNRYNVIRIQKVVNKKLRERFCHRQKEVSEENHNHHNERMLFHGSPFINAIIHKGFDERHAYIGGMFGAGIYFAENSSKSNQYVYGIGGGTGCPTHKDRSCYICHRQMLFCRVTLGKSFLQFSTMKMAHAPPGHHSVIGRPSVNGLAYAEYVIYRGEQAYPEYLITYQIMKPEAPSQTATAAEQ

Row | SMILES | IC50 [1] [nM] | IC50 ([2]; 0.25 nM enzyme) [nM] | IC50 ([2]; […] enzyme) [nM]
1 | CC1(C)OC(=O)N(c2ccc(C(=O)Nc3cccc4cccnc34)cc2)C1c1cccc(F)c1 (racemic) [Example 108, (+/−)-(R/S)-4-(4-(3-fluorophenyl)-5,5-dimethyl-2-oxooxazolidin-3-yl)-N-(quinolin-8-yl)benzamide] | > 10000 | 551 | –
2 | CC1(C)OC(=O)N(c2ccc(-c3cc(-c4ccccn4)cnc3F)cc2)[C@H]1c1ccccc1 [Example 114, (S)-3-(4-(6′-fluoro-[2,3′-bipyridin]-5′-yl)phenyl)-5,5-dimethyl-4-phenyloxazolidin-2-one] | 1780 | – | 447
3 | CC1(C)OC(=O)N(C2CCN(c3cnc4ccn(-c5ncccn5)c4c3)CC2)[C@H]1c1ccccc1 [Example 140, (S)-5,5-dimethyl-4-phenyl-3-(1-(1-(pyrimidin-2-yl)-1H-pyrrolo[3,2-b]pyridin-6-yl)piperidin-4-yl)oxazolidin-2-one] | 1830 | – | 24.3
4 | C[C@@]1(c2ccccc2)CN([C@H]2CC[C@@H](n3c(=O)[nH]c4cc(C#N)ccc43)CC2)C(=O)O1 (stereo in doubt) [Example 93, 1-((1R,4r)-4-((R)-5-methyl-2-oxo-5-phenyloxazolidin-3-yl)cyclohexyl)-2-oxo-2,3-dihydro-1H-benzo[d]imidazole-5-carbonitrile] | 125 | – | 3
5 | CC1(C)OC(=O)N([C@@H]2CC=C(c3cnc4ccn(-c5ncccn5)c4c3)CC2)[C@H]1c1ccccc1 (mixture of isomers) [Example 173, Mixture of (S)-5,5-dimethyl-4-phenyl-3-((S)-4-(1-(pyrimidin-2-yl)-1H-pyrrolo[3,2-b]pyridin-6-yl)cyclohex-3-en-1-yl)oxazolidin-2-one and (S)-5,5-dimethyl-4-phenyl-3-((R)-4-(1-(pyrimidin-2-yl)-1H-pyrrolo[3,2-b]pyridin-6-yl)cyclohex-3-en-1-yl)oxazolidin-2-one] | 1120 | – | 9.26
6 | CC1(C)OC(=O)N(c2ccc(C(=O)Nc3cccc4cccnc34)cc2)[C@@H]1c1ccccn1 [Example 122, (R)-4-(5,5-dimethyl-2-oxo-4-(pyridin-2-yl)oxazolidin-3-yl)-N-(quinolin-8-yl)benzamide] | 8560 | – | 1530
7 | CC1(C)OC(=O)N([C@H]2CC[C@H](n3c(=O)[nH]c4cccnc43)CC2)[C@@H]1c1ccccc1 [Example 38, (R)-5,5-dimethyl-3-((1r,4R)-4-(2-oxo-1H-imidazo[4,5-b]pyridin-3(2H)-yl)cyclohexyl)-4-phenyloxazolidin-2-one] | 4740 | – | –
8 | CC1(C)OC(=O)N(c2ccc(-c3cnc(N)c(-c4nccc(C#N)n4)c3)cc2)[C@H]1c1ccccc1 [Example 102, (S)-2-(2-amino-5-(4-(5,5-dimethyl-2-oxo-4-phenyloxazolidin-3-yl)phenyl)pyridin-3-yl)pyrimidine-4-carbonitrile] | > 10000 | – | 920
9 | CC1(C)OC(=O)N(c2ccc(C(=O)Nc3cccc4cccnc34)cc2)C1c1ccccn1 (racemic) [Example 121, (+/−)-(R/S)-4-(5,5-dimethyl-2-oxo-4-(pyridin-2-yl)oxazolidin-3-yl)-N-(quinolin-8-yl)benzamide] | 5640 | 310 | –
10 | CC1(C)OC(=O)N(c2ccc(C(=O)Nc3cccc4cccnc34)cc2)[C@H]1c1ccccn1 [Example 123, (S)-4-(5,5-dimethyl-2-oxo-4-(pyridin-2-yl)oxazolidin-3-yl)-N-(quinolin-8-yl)benzamide] | 3440 | – | 228
11 | CC1(C)OC(=O)N(c2ccc(C(=O)Nc3cccc4cccnc34)cc2)C1c1cccnc1 (racemic) [Example 9, (+/−)-(R/S)-4-(5,5-dimethyl-2-oxo-4-(pyridin-3-yl)oxazolidin-3-yl)-N-(quinolin-8-yl)benzamide] | 2480 | 1160 | –
12 | Cc1cc(N2C(=O)OC(C)(C)[C@@H]2c2ccccc2)ccc1C(=O)Nc1ccnc2cccnc12 [Example 128, (S)-4-(5,5-dimethyl-2-oxo-4-phenyloxazolidin-3-yl)-2-methyl-N-(1,5-naphthyridin-4-yl)benzamide] | 4350 | – | 693
13 | CC1(C)OC(=O)N([C@H]2CC[C@H](NC(=O)c3ccccc3)CC2)[C@H]1c1ccccc1 [Example 141, N-((1S,4r)-4-((S)-5,5-dimethyl-2-oxo-4-phenyloxazolidin-3-yl)cyclohexyl)benzamide] | – | – | 755
14 | Cn1cc2c(C(=O)N[C@H]3CC[C@H](N4C(=O)OC(C)(C)[C@H]4c4ccccc4)CC3)cccc2n1 [Example 144, N-((1R,4r)-4-((R)-5,5-dimethyl-2-oxo-4-phenyloxazolidin-3-yl)cyclohexyl)-2-methyl-2H-indazole-4-carboxamide] | – | – | 222
15 | CC1(C)OC(=O)N([C@H]2CC[C@H](NC(=O)c3cc4ccncc4[nH]3)CC2)[C@H]1c1ccccc1 [Example 149, N-((1S,4r)-4-((S)-5,5-dimethyl-2-oxo-4-phenyloxazolidin-3-yl)cyclohexyl)-1H-pyrrolo[2,3-c]pyridine-2-carboxamide] | – | – | 34
16 | CC(C)c1cc(C(=O)N[C@H]2CC[C@H](N3C(=O)OC(C)(C)[C@@H]3c3ccccc3)CC2)[nH]n1 [Example 154, N-((1S,4r)-4-((S)-5,5-dimethyl-2-oxo-4-phenyloxazolidin-3-yl)cyclohexyl)-3-isopropyl-1H-pyrazole-5-carboxamide] | – | – | 2320
17 | CC1(C)OC(=O)N([C@H]2CC[C@H](n3c(=O)[nH]c4cc(C#N)c(F)cc43)CC2)[C@H]1c1ccccc1 [Example 103, 1-((1S,4r)-4-((S)-5,5-dimethyl-2-oxo-4-phenyloxazolidin-3-yl)cyclohexyl)-6-fluoro-2-oxo-2,3-dihydro-1H-benzo[d]imidazole-5-carbonitrile] | 67.2 | – | –
18 | CC1(C)OC(=O)N([C@H]2CC[C@H](NC(=O)c3csc(Br)n3)CC2)[C@H]1c1ccccc1 [Example 182, 2-bromo-N-((1S,4r)-4-((S)-5,5-dimethyl-2-oxo-4-phenyloxazolidin-3-yl)cyclohexyl)thiazole-4-carboxamide] | – | – | 32.1
19 | CC1(C)OC(=O)N(C2CC(c3nnc(-c4ccccc4)o3)C2)[C@@H]1c1ccccc1 (mixture of isomers) [Example 175, Mixture of (R)-5,5-dimethyl-4-phenyl-3-((1r,3R)-3-(5-phenyl-1,3,4-oxadiazol-2-yl)cyclobutyl)oxazolidin-2-one compound and (S)-5,5-dimethyl-4-phenyl-3-((1r,3S)-3-(5-phenyl-1,3,4-oxadiazol-2-yl)cyclobutyl)oxazolidin-2-one (1:1)] | – | – | 1470
20 | CC1(C)OC(=O)N([C@H]2CC[C@H](n3c(=O)n(CC(F)F)c4cnccc43)CC2)[C@H]1c1ccccc1 [Example 39, (S)-3-((1r,4S)-4-(3-(2,2-difluoroethyl)-2-oxo-2,3-dihydro-1H-imidazo[4,5-c]pyridin-1-yl)cyclohexyl)-5,5-dimethyl-4-phenyloxazolidin-2-one] | 6750 | – | –
21 | CC1(C)OC(=O)N([C@H]2CC[C@H](c3cnc4cc[nH]c4c3)CC2)[C@H]1c1ccccc1 [Example 171, (S)-3-((1r,4S)-4-(1H-pyrrolo[3,2-b]pyridin-6-yl)cyclohexyl)-5,5-dimethyl-4-phenyloxazolidin-2-one] | – | – | 19
22 | CC1(C)OC(=O)N([C@H]2CC[C@H](c3cnc4[nH]ccc4c3)CC2)[C@H]1c1ccccc1 [Example 137, (S)-3-((1r,4s)-4-(1H-pyrrolo[2,3-b]pyridin-5-yl)cyclohexyl)-5,5-dimethyl-4-phenyloxazolidin-2-one] | – | 218 | –
23 | CC1(C)OC(=O)N([C@H]2CC[C@H](NC(=O)c3ccnc4[nH]ccc34)CC2)[C@H]1c1ccccc1 [Example 152, N-((1S,4r)-4-((S)-5,5-dimethyl-2-oxo-4-phenyloxazolidin-3-yl)cyclohexyl)-1H-pyrrolo[2,3-b]pyridine-4-carboxamide] | – | – | 228
24 | Cn1cc2cccc(C(=O)N[C@H]3CC[C@H](N4C(=O)OC(C)(C)[C@@H]4c4ccccc4)CC3)c2n1 [Example 145, N-((1S,4r)-4-((S)-5,5-dimethyl-2-oxo-4-phenyloxazolidin-3-yl)cyclohexyl)-2-methyl-2H-indazole-7-carboxamide] | – | – | 13.7
25 | CC1(C)OC(=O)N([C@H]2CC[C@H](c3cc4ccncc4[nH]c3=O)CC2)[C@H]1c1ccccc1 [Example 139, (S)-5,5-dimethyl-3-((1r,4s)-4-(2-oxo-1,2-dihydro-1,7-naphthyridin-3-yl)cyclohexyl)-4-phenyloxazolidin-2-one] | – | 11.5 | –
26 | CC1(C)OC(=O)N([C@H]2CC[C@H](NC(=O)c3cccc4[nH]ncc34)CC2)[C@H]1c1ccccc1 [Example 153, N-((1S,4r)-4-((S)-5,5-dimethyl-2-oxo-4-phenyloxazolidin-3-yl)cyclohexyl)-1H-indazole-4-carboxamide] | – | – | 848
